In US4818753A, “Synthesis and method of use for 2, 4 diaminoquinazoline” (SRI International, priority 1987, dated 1989):
Values after ≈ are worked out from the molar mass of the structure shown. Read-outs that look alike come from different tables or passages of the source.

How the values were obtained:
Format in all cases: cell-based
[1] = test system: Candida albicans (10231); experiment: Broth dilution assay, F1
Protocol: (§1) Both broth dilution and agar dilution assays were used to assess the antifungal activity of the compounds of the invention. The cultures were maintained in Sabouraud dextrose broth (SDB) and diluted with […]. 2.5 l of SDB was prepared and distributed into sterile vessels as follows: 49 ml into 1 vessel, 27 ml into 3 vessels, 45 ml into 2 vessels.
(§2) Five mg/ml concentration of each compound was prepared using DMSO as the solvent; warming and sonication were necessary to dissolve each compound completely. The compounds were then diluted in SDB according to the following protocol:
(§3) 5. 1 ug/ml--5 ml (3)+45 ml SDB
(§4) The compound at each concentration in SDB was then dispensed into 6 tubes each containing 4 ml […]. Controls (without any compound) were also prepared to insure that the solvent itself was not fungicidal or fungistatic.
(§5) Cultures were grown in SDB for 24 h at 30° C. C. albicans and C. neoformans were diluted 1:10 in SDB before inoculation. Inoculation volume for yeasts was 2 drops of diluted cells per tube. The fungal cultures were homogenized before inoculation. The same volume was added, but without dilution. All tubes were incubated at room temperature on a rotating wheel. After 16 h of incubation at room temperature, the fungistatic assay was set up on agar plates. […] Yeasts were inoculated onto SDA (the corresponding agar) plates and fungi onto mycosel agar plates. These plates were then incubated at room temperature.

[2] = test system: Candida albicans (14053); experiment: Broth dilution assay, F2; settings: for MIC: Table 1, F2, Sabouraud Dextrose Broth pH 5.5, read-out: Minimum Inhibitory Concentration (S, fungistatic); for MFC: Table 1, F2, Sabouraud Dextrose Broth pH 5.5, read-out: Minimum Lethal Concentration (C, fungicidal)
Protocol: as §1, §2, §3, §4, §5

[3] = test system: Cryptococcus neoformans (13690); experiment: Broth dilution assay, F3
Protocol: as §1, §2, §3, §4, §5

[4] = test system: Epidermophyton floccosum (15693); experiment: Broth dilution assay, F4
Protocol: as §1, §2, §3, §4, §5

[5] = test system: Trichophyton mentagrophytes (11481); experiment: Broth dilution assay, F6
Protocol: as §1, §2, §3, §4, §5

[6] = test system: Microsporum gypseum (14683); experiment: Broth dilution assay, F12; settings: Nannizzia gypsea
Protocol: as §1, §2, §3, §4, §5

[7] = test system: Penicillium citrinum (9849); experiment: Broth dilution assay, F19; settings: for MIC: Table 1, F19, Sabouraud Dextrose Broth pH 5.5, read-out: Minimum Inhibitory Concentration (S, fungistatic); for MFC: Table 1, F19, Sabouraud Dextrose Broth pH 5.5, read-out: Minimum Lethal Concentration (C, fungicidal)
Protocol: as §1, §2, §3, §4, §5

[8] = test system: Candida; experiment: Growth of Candida cultures with compound and/or SMX (FIG. 1); settings: SMX alone (100 ug)
[9] = Table 1, F1, Sabouraud Dextrose Broth pH 5.5, read-out: Minimum Inhibitory Concentration (S, fungistatic)
[10] = Table 1, F1, Sabouraud Dextrose Broth pH 5.5, read-out: Minimum Lethal Concentration (C, fungicidal)
[11] = Table 1, F3, Sabouraud Dextrose Broth pH 5.5, read-out: Minimum Inhibitory Concentration (S, fungistatic)
[12] = Table 1, F3, Sabouraud Dextrose Broth pH 5.5, read-out: Minimum Lethal Concentration (C, fungicidal)
[13] = Table 1, F4, Sabouraud Dextrose Broth pH 5.5, read-out: Minimum Inhibitory Concentration (S, fungistatic)
[14] = Table 1, F4, Sabouraud Dextrose Broth pH 5.5, read-out: Minimum Lethal Concentration (C, fungicidal)
[15] = Table 1, F6, Sabouraud Dextrose Broth pH 5.5, read-out: Minimum Inhibitory Concentration (S, fungistatic)
[16] = Table 1, F6, Sabouraud Dextrose Broth pH 5.5, read-out: Minimum Lethal Concentration (C, fungicidal)
[17] = Table 1, Sabouraud Dextrose Broth pH 5.5, read-out: Minimum Inhibitory Concentration (S, fungistatic)
[18] = Table 1, Sabouraud Dextrose Broth pH 5.5, read-out: Minimum Lethal Concentration (C, fungicidal)
[19] = Table 2, F1, Sabouraud Dextrose Broth pH 5.5, read-out: C Fungicidal
[20] = Table 2, F1, Sabouraud Dextrose Broth pH 5.5, read-out: S Fungistatic
[21] = Table 2, F3, Sabouraud Dextrose Broth pH 5.5, read-out: C Fungicidal
[22] = Table 2, F3, Sabouraud Dextrose Broth pH 5.5, read-out: S Fungistatic
[23] = Table 2, F4, Sabouraud Dextrose Broth pH 5.5, read-out: C Fungicidal
[24] = Table 2, F4, Sabouraud Dextrose Broth pH 5.5, read-out: S Fungistatic
[25] = Table 2, F6, Sabouraud Dextrose Broth pH 5.5, read-out: C Fungicidal
[26] = Table 2, F6, Sabouraud Dextrose Broth pH 5.5, read-out: S Fungistatic
[27] = Table 2, Sabouraud Dextrose Broth pH 5.5, read-out: C Fungicidal
[28] = Table 2, Sabouraud Dextrose Broth pH 5.5, read-out: S Fungistatic

Structure (SMILES)	MIC [1, 9]	MFC [1, 10]	MIC [2]	MFC [2]	MIC [3, 11]	MFC [3, 12]	MIC [4, 13]	MFC [4, 14]	MIC [5, 15]	MFC [5, 16]	MFC [1, 19]	MIC [1, 20]	MFC [3, 21]	MIC [3, 22]	MFC [4, 23]	MIC [4, 24]	MFC [5, 25]	MIC [5, 26]	MFC [6, 27]	MIC [6, 28]	further results
Cc1c(CCC(C)C)ccc2nc(N)nc(N)c12 [--CH2 CH2 CH(CH3)2]	100 µg/mL (≈ 409 µM)	100 µg/mL (≈ 409 µM)	100 µg/mL (≈ 409 µM)	100 µg/mL (≈ 409 µM)	10 µg/mL (≈ 40.9 µM)	30 µg/mL (≈ 123 µM)	10 µg/mL (≈ 40.9 µM)	10 µg/mL (≈ 40.9 µM)	> 30 µg/mL	> 30 µg/mL	–	–	–	–	–	–	–	–	–	–	MIC [6, 17]: 30 µg/mL (≈ 123 µM); MFC [6, 18]: > 30 µg/mL; MIC [7]: 100 µg/mL (≈ 409 µM); MFC [7]: > 100 µg/mL
CCCCCCCCCc1ccc2nc(N)nc(N)c2c1 [R^1 = H R^2 = CH2 (CH2)7 CH3]	–	–	–	–	–	–	–	–	–	–	> 100 µg/mL	100 µg/mL (≈ 349 µM)	> 30 µg/mL	3 µg/mL (≈ 10.5 µM)	≤ 0.3 µg/mL	30 µg/mL (≈ 105 µM)	> 100 µg/mL	> 100 µg/mL	> 100 µg/mL	100 µg/mL (≈ 349 µM)	–
CCCCc1ccc2nc(N)nc(N)c2c1C [--CH2 (CH2)2 CH3]	100 µg/mL (≈ 434 µM)	> 100 µg/mL	100 µg/mL (≈ 434 µM)	100 µg/mL (≈ 434 µM)	30 µg/mL (≈ 130 µM)	30 µg/mL (≈ 130 µM)	10 µg/mL (≈ 43.4 µM)	30 µg/mL (≈ 130 µM)	> 30 µg/mL	> 30 µg/mL	–	–	–	–	–	–	–	–	–	–	MIC [6, 17]: 30 µg/mL (≈ 130 µM); MFC [6, 18]: > 30 µg/mL; MIC [7]: 100 µg/mL (≈ 434 µM); MFC [7]: > 100 µg/mL
Cc1cccc(N(C)C(=S)Oc2ccc3ccccc3c2)c1 [Tolnaftate, reference compound]	> 100 µg/mL	> 100 µg/mL	> 100 µg/mL	> 100 µg/mL	> 100 µg/mL	> 100 µg/mL	≤ 0.1 µg/mL	10 µg/mL (≈ 32.5 µM)	≤ 0.1 µg/mL	3 µg/mL (≈ 9.76 µM)	> 100 µg/mL	> 100 µg/mL	> 100 µg/mL	> 100 µg/mL	≤ 0.3 µg/mL	≤ 0.3 µg/mL	> 100 µg/mL	≤ 0.3 µg/mL	30 µg/mL (≈ 97.6 µM)	≤ 0.3 µg/mL	MIC [6, 17]: ≤ 0.1 µg/mL; MFC [6, 18]: 10 µg/mL (≈ 32.5 µM); MIC [7]: ≤ 0.3 µg/mL; MFC [7]: 30 µg/mL (≈ 97.6 µM)
Cc1cc(NS(=O)(=O)c2ccc(N)cc2)no1 [SMX, sulfamethoxazole, reference compound]	–	–	–	–	–	–	–	–	–	–	–	–	–	–	–	–	–	–	–	–	cfu/ml over a 36-h period [8]: approximately 10^8 cfu/ml
CCCCCCCc1ccc2nc(N)nc(N)c2c1C [R^1 = CH3 R^2 = --CH2 (CH2)5 CH3, 2,4-Diamino-5-methyl-6-n-heptylquinazoline]	–	–	–	–	–	–	–	–	–	–	> 100 µg/mL	30 µg/mL (≈ 110 µM)	10 µg/mL (≈ 36.7 µM)	3 µg/mL (≈ 11 µM)	30 µg/mL (≈ 110 µM)	10 µg/mL (≈ 36.7 µM)	30 µg/mL (≈ 110 µM)	30 µg/mL (≈ 110 µM)	100 µg/mL (≈ 367 µM)	30 µg/mL (≈ 110 µM)	–
Cc1c(CCc2ccccc2)ccc2nc(N)nc(N)c12 [R^1 = CH3 R^2 = --CH2 (CH2)C6 H5, 2,4-Diamino-5-methyl-6-phenethylquinazline]	–	–	–	–	–	–	–	–	–	–	> 100 µg/mL	100 µg/mL (≈ 359 µM)	30 µg/mL (≈ 108 µM)	10 µg/mL (≈ 35.9 µM)	100 µg/mL (≈ 359 µM)	30 µg/mL (≈ 108 µM)	30 µg/mL (≈ 108 µM)	30 µg/mL (≈ 108 µM)	> 100 µg/mL	100 µg/mL (≈ 359 µM)	–
